# From PMC11597353, “Synthesis of Novel Gefitinib-Conjugated 1,2,3-Triazole Derivatives and Their Effect of Inducing DNA Damage and Apoptosis in Tumor Cells” (Molecules, 2024)
# Columns and labels:
# [1] = system: Bcl-2/Caspase-3/PARP signaling pathway; assay: Western blot of apoptosis-related proteins in HepG2 cells; assay type: cell-based, human; conditions: 48 h; for expression level of Bcl-2 / expression level of Caspase-3 / expression level of Caspase-9 / expression level of PARP / level of cleaved Caspase-3 / level of cleaved PARP: HepG2, 2, 4, 8 μM; for expression of Bax: HepG2, with increasing drug concentration
# Source text: We conducted an in-depth study on the mechanisms of apoptosis induced by compounds 11m and 11t (Figure 9). The Bcl-2 protein family is located upstream in the apoptosis signaling pathway, with Bcl-2 exerting anti-apoptotic and pro-proliferative effects by inhibiting the release of cytochrome C (cyt-c) from the mitochondria. Previous studies have reported that many anticancer drugs exert pro-apoptotic effects by downregulating Bcl-2. When apoptosis occurs, the expression level of Bcl-2 is suppressed, cyt-c is released, and it binds to apoptotic protease activating factor (Apaf-1) to form the apoptosome, triggering a cascade reaction involving the Caspase family proteins. The apoptosome first promotes the activation of Caspase-9, which in turn activates Caspase-3, forming cleaved Caspase-3. Cleaved Caspase-3 further activates downstream PARP proteins, ultimately promoting apoptosis. […] After treating HepG2 cells with different concentrations of the compounds for 48 h, we extracted cellular proteins and used Western blotting to detect changes in the expression of apoptosis-related proteins. […] The expression levels of Caspase-3, Caspase-9, and PARP decreased with increasing drug concentration, whereas the levels of cleaved Caspase-3 and cleaved PARP increased.
# HepG2 cells were seeded in 6-well plates and incubated for 24 h. They were then treated with 11m or 11t at concentrations of 2, 4, or 8 μM for 48 h. The cells were harvested, and cytoplasmic and nuclear proteins were extracted using cell lysis buffer from Beyotime Biotechnology (Shanghai, China). Protein supernatants were mixed with loading buffer, denatured at 100 °C for 10 min, and quantified using BCA. Equal amounts of protein, along with molecular weight markers, were loaded onto a 12% SDS-PAGE gel and separated by electrophoresis for 2 h. The separated proteins were transferred onto NC membranes, and nonspecific binding sites on the membranes were blocked with 5% skim milk. Membranes were incubated with primary antibodies overnight at 4 °C, followed by incubation with HRP-conjugated secondary antibodies (goat anti-rabbit or goat anti-mouse IgG) at room temperature for 2 h. Protein bands were visualized on NC membranes using ECL ultra-sensitive chemiluminescence solution and a Bio-Rad gel imaging and analysis system.
# normal liver cells (L02) = assay: CCK8 toxicity against normal liver cells (L02); conditions: Figure 3
# Kunming mice = assay: Acute toxicity test in mice; assay type: in vivo
# Description: To further assess the safety of the compounds, we conducted an acute toxicity experiment on mice.
# Liver function was evaluated by measuring serum glutamic pyruvic transaminase (GPT) and glutamic oxaloacetic transaminase (GOT) levels (Figure 10C). GPT and GOT are commonly used indicators for assessing liver function, reflecting physiological and pathological changes in the liver. Elevated serum levels of GPT and GOT indicate damage to liver cells or mitochondria. […] This provides additional evidence for the high safety of the compound and experimental data for clinical drug safety (p > 0.05).
# Six 5-week-old, SPF-grade, healthy, male Kunming mice (31.13 ± 1.13 g) were purchased from Henan Skibest Biotechnology Co., Ltd. (Anyang, China) (License No.: SCXK (Yu) 2020-0005). They were housed at the SPF animal center of the School of Basic Medicine and Forensic Science, Henan University of Science and Technology, with normal solid food and drinking water provided, and a 12 h light–dark cycle each day. After one week of acclimatization, the mice were randomly divided into two groups: the control group and the treatment group (11t), which were administered a single gavage of the corresponding volume of solvent and drug (drug concentration: 800 mg/kg; drug solvent: 10% DMSO + 40% PEG300 + 5% Tween 80 + 45% saline) at a dosage of 0.1 mL/10 g. After administration, the mice’s activity was monitored daily, and their weight was recorded. After 14 days, blood was collected via the eye and the mice were euthanized by cervical dislocation. The heart, liver, spleen, lungs, and kidneys were extracted, rinsed with saline, and the surface moisture was absorbed with filter paper. The weight of all organs was measured using an electronic balance. The organ coefficient was calculated as organ weight/body weight × 100. Blood samples were left at room temperature for 1 h, then centrifuged at 2500 rpm for 20 min to measure liver function indicators GPT and GOT (Nanjing Jiancheng Bioengineering Institute, Nanjing, China). After weighing the organs, they were fixed in 4% tissue fixative for 24 h, dehydrated, cleared, embedded in paraffin, and stained with HE for microscopic observation of the tissues.
# HepG2 cells [2] = assay: Transwell migration assay; assay type: cell-based, human; conditions: HepG2, 2, 4, 8 μM, 48 h, vs control, p < 0.01
# Source text: To investigate the effect of the compounds on the migration of wild-type liver cancer cells, we conducted wound healing and Transwell assays to assess changes in the migration ability of HepG2 cells after treatment with compounds 11m and 11t. […] The Transwell migration assay, another important method for evaluating cell migration, involves seeding tumor cells in a chamber and assessing their migration ability by counting the number of cells that pass through the membrane. […] These findings indicate that compounds 11m and 11t can inhibit the migration ability of liver cancer cells in a concentration-dependent manner.
# HepG2 cells were starved in serum-free Gibco DMEM for 24 h, then seeded in the upper chamber of a 24-well Transwell plate (Corning Inc., Corning, NY, USA) at a density of 5 × 10^5 cells/mL. 11m or 11t was added to achieve final concentrations of 0, 2, 4, and 8 μM. The upper chamber’s total volume was 200 μL, while the lower chamber contained 600 μL of Gibco DMEM with 20% serum. After 48 h of incubation, the culture medium was washed off with PBS, and the cells were fixed with 4% paraformaldehyde at room temperature for 20 min. […] Images were taken under an inverted microscope, and quantification was performed using ImageJ.
# HepG2 cells [3] = assay: CCK8 cell viability / IC50 assay on HepG2 cells; conditions: for % Cell Viability (10 μM): 72 h; for IC50: read-out: HepG2, IC50 (μM) 72 h
# [4] = mice, single gavage 800 mg/kg, day 14
smiles,measurement,setting,value
"COc1cc2ncnc(Nc3cccc(-c4cn(Cc5cccc(I)c5)nn4)c3)c2cc1OCCCN1CCOCC1 [Compound 11t, N-(3-(1-(3-iodobenzyl)-1H-1,2,3-triazol-4-yl)phenyl)-7-methoxy-6-(3-morpholinopropoxy)quinazolin-4-amine]",expression level of Bcl-2,[1],decreased
same,expression level of Caspase-3,[1],decreased
same,expression level of Caspase-9,[1],decreased
same,expression level of PARP,[1],decreased
same,level of cleaved Caspase-3,[1],increased
same,level of cleaved PARP,[1],increased
same,expression of Bax,[1],increased
same,toxicity against normal liver cells (L02),normal liver cells (L02),favorable safety profile
same,toxicity in mice,"Kunming mice; acute toxicity, 800 mg/kg gavage",low toxicity
same,body weight vs control group,"Kunming mice; mice, single gavage 800 mg/kg, 14 days, p > 0.05",no statistically significant differences
same,"histological analysis (H&E) of hearts, livers, spleens, lungs, and kidneys",Kunming mice; [4],no significant toxic characteristics
same,"organ indices of the heart, liver, spleen, lungs, and kidneys vs control group",Kunming mice; [4],no statistically significant differences
same,organ morphological examination,Kunming mice; [4],No pathological morphology was observed
same,serum GPT and GOT (biochemical indicators) vs control group,"Kunming mice; mice, single gavage 800 mg/kg, day 14, p > 0.05",no statistically significant differences
same,number of cells that migrated through the microporous membrane,HepG2 cells [2],significantly reduced
same,% Cell Viability (10 μM),HepG2 cells [3],5.22 ± 0.36%
same,IC50,HepG2 cells [3],3.6 ± 0.53 µM
"COc1cc2ncnc(Nc3cccc(-c4cn(Cc5ccc(I)cc5)nn4)c3)c2cc1OCCCN1CCOCC1 [Compound 11m, N-(3-(1-(4-iodobenzyl)-1H-1,2,3-triazol-4-yl)phenyl)-7-methoxy-6-(3-morpholinopropoxy)quinazolin-4-amine]",expression level of Bcl-2,[1],decreased
same,expression level of Caspase-3,[1],decreased
same,expression level of Caspase-9,[1],decreased
same,expression level of PARP,[1],decreased
same,level of cleaved Caspase-3,[1],increased
same,level of cleaved PARP,[1],increased
same,expression of Bax,[1],increased
same,toxicity against normal liver cells (L02),normal liver cells (L02),favorable safety profile
same,melting point,,185 to 186 °C
same,number of cells that migrated through the microporous membrane,HepG2 cells [2],significantly reduced
same,% Cell Viability (10 μM),HepG2 cells [3],5.86 ± 0.04%
same,IC50,HepG2 cells [3],3.08 ± 0.37 µM
